The target of assay [1] is Type IV collagenase. Description: Type IV collagenase inhibiting activity (fluorescence labeled gelatin). The class given is biochemical, human. The conditions noted are these: from HT-1080 cell; 6 hours at 37° C., pH 7.5. As to the method: (3) Measuring Method of Type IV Collagenase Inhibiting Activity
Inhibiting of type IV collagenase refined from the culture supernatant of human […] (HT-1080 cell) was measured by using fluorescence labeled gelatin, according to the method proposed by Haris et al. [Haris, E. D., and Krane, S. M., Biochim. Biophys. Acta., 258, 566-576 (1972)].
The enzyme was activated by incubating for 22 hours at 37° C. in 1 mM mercury (II) p-aminophenylacetate. The test compound was used by dissolving in dimethyl sulfoxide. The enzyme reaction was started by adding the activated enzyme in 50 mM TRIS-hydrochloric acid (pH 7.5), 10 mM CaCl2, 0.01% (w/v) "Bridge 35" (tradename, available from Wako Pure Chemical Industries, Ltd.), 0.1% (v/v) dimethyl sulfoxide solution containing the test compound and 0.1% (w/v) of fluorescence labeled gelatin as substrate. The reaction was conducted for 6 hours at 37° C., and stopped by adding 30% (w/v) trichloroacetic acid solution by 1/2 amount. After letting stand at 4° C. for 30 minutes, by centrifugal separation for 10 minutes at 10000 rpm, 4° C., the undigested substrate was precipitated. To 1 part by volume of the obtained supernatant, 50 parts by volume of 0.3M phosphate buffer (pH 8.5) was added, and the fluorescence intensity was measured at 520 nm (Em)/495 nm (Ex), and the undigested amount was quantitatively determined.
The enzyme inhibiting activity was expressed by the concentration (IC50) of the test compound wherein the enzyme activity of known amount was blocked till 50%.

Assay [2] addresses T1, Interstitial collagenase (Homo sapiens, UniProt P03956).
T1 construct: endogenous in cells; host or cells: Detroit 551 (human fibroblasts), culture supernatant, purified
T1 sequence (P03956 100-469): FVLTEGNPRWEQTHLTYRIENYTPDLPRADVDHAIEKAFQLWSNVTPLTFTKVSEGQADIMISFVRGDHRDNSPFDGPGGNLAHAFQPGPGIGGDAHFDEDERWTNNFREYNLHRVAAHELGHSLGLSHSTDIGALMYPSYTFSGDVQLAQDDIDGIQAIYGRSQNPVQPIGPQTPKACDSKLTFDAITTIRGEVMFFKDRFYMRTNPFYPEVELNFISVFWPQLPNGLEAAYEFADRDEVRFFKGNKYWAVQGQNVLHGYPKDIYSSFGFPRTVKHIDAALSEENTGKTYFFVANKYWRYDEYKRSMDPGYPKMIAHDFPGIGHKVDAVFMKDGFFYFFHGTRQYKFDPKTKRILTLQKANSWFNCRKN
Description: Interstitial collagenase inhibiting activity (fluorescence labeled collagen). The class given is biochemical. The conditions noted are these: from human fibroblast cell (Detroit 551); 2 hours at 35° C., pH 7.5. As to the method: (2) Measuring Method of Interstitial Collagenase Inhibiting Activity
Inhibiting of interstitial collagenase refined from the culture supernatant of human fibroblast cell (Detroit 551 cell) was measured by using fluorescence labeled collagen, according to the method proposed by Nagai et al. [Inflammation, 4 (2), 123 (1984)].
The enzyme was activated by incubating for 3 hours at 37° C. in 1 mM mercury (II) p-aminophenylacetate. The test compound was used by dissolving in dimethyl sulfoxide. The enzyme reaction was started by adding the activated enzyme in 50 mM TRIS-hydrochloric acid (pH 7.5), 0.2M NaCl, 5 mM CaCl2, 0.02% (w/v) NaN3, 2.5 mM acetic acid, and 0.1% (v/v) dimethyl sulfoxide solution containing the test compound and 0.025% (w/v) of fluorescence labeled collagen as substrate. The reaction was conducted for 2 hours at 35° C., and stopped by adding ice-chilled 80 mM O-phenanthroline, 50% (v/v) ethanol solution by 1/20 amount. To this, moreover, an equivalent volume of 50 mM TRIS-hydrochloric acid (pH 7.5), 0.2M NaCl, 5 mM CaCl2, 0.02% (w/v) NaN3 solution was added to incubate further for 1 hour at 35° C. to degenerate specifically only the digestion product, and the digestion product was extracted by adding 0.17M TRIS-hydrochloric acid (pH 9.5), 0.67M NaCl solution including an equivalent amount of 70% (v/v) ethanol, and afterwards, by centrifugal separation for 15 minutes at 3000 rpm, 4° C., the undigested substrate was precipitated. The fluorescence intensity of the obtained supernatant was measured at 520 nm (Em)/495 nm (Ex), and the decomposition volume was quantitatively determined.
(§1) The enzyme inhibiting activity was expressed by the concentration (IC50) of the test compound wherein the enzyme activity of known amount was inhibited till 50%.

The target of assay [3] is T2, Stromelysin (Mus musculus, UniProt P28862).
T2 construct: endogenous in cells; host or cells: Colon 26 (mouse colon cancer cells), culture supernatant, purified
Description: Stromelysin inhibiting activity (fluorescence labeled casein). The conditions noted are these: from mouse colon cancer cell (Colon 26); 3 hours at 37° C., pH 7.5. The class given is biochemical. Here is the method:
(1) Measuring Method of Stromelysin Inhibiting Activity
Inhibiting of Stromelysin refined from the culture supernatant of mouse colon cancer cell (Colon 26 cell) was measured by using fluorescence labeled casein, according to the method proposed by Miyazaki et al. (J. Biochem., 108, 537-543, 1990), and S. S. Twining [Fed. Proc., 42, 1951 (1984)].
The enzyme was activated by incubating for 2 hours at 37° C. in 1 mM mercury (II) p-aminophenylacetate. The test compound was used by dissolving in dimethyl sulfoxide. The enzyme reaction was started by adding the activated enzyme in a solution of 50 mM TRIS-hydrochloric acid (pH 7.5), 10 mM CaCl2, and 0.1% (v/v) dimethyl sulfoxide containing the test compound and 0.25% (w/v) of fluorescence labeled casein as substrate. The reaction was conducted for 3 hours at 37° C., and stopped by adding an equivalent amount of 5% (w/v) trichloroacetic acid solution. Afterwards, by centrifugal separation for 15 minutes at 3000 rpm, 4° C., the undigested substrate was precipitated, and to 1 part by volume of the obtained supernatant, 4 parts by volume of 0.3M phosphate buffer (pH 8.5) was added, and the fluorescence intensity was measured at 520 nm (Em)/495 nm (Ex), and the decomposition volume was quantitatively determined.
as §1

For assay [4], the system named is Colon 26 PMF15 tumor cells. The assay can be described thus: Lung metastasis of Colon 26 PMF15 tumor in mice after oral administration. The class given is in vivo, male CDF1 mice. The conditions noted are these: Test I; for Number of lung metastastic nodules mean ± S.E.: day 28; for Ratio to control group: lung nodules. As to the method:
Experiment was carried out according to a method of Motoyama et al. [Gan To Kagaku Ryoho (JAPAN), 21(8): pages 1209-1214, 1994]. That is, Colon 26 PMF15 tumor cells (5×10^5 /mouse) were inoculated into the left hind footpad of male CDF1 mice (one group comprising 7 mice). After 14 days from inoculation, the left hind-limb was cut from the upper part of the articulatio geniculum under pentobarbital anesthetization using a cautery knife to remove the primary tumor. After 28 days from inoculation,the lung was removed and the number of metastastic nodules on the surface thereof were measured, thereby taking it as an index of the effect. The test compound was orally administered one time a day until 27 days have passed since the day following the day when tumor cells were inoculated, excluding the day when the primary tumor was removed.

pIC50: −log10 of the molar value.

T2 sequence (P28862 100-477): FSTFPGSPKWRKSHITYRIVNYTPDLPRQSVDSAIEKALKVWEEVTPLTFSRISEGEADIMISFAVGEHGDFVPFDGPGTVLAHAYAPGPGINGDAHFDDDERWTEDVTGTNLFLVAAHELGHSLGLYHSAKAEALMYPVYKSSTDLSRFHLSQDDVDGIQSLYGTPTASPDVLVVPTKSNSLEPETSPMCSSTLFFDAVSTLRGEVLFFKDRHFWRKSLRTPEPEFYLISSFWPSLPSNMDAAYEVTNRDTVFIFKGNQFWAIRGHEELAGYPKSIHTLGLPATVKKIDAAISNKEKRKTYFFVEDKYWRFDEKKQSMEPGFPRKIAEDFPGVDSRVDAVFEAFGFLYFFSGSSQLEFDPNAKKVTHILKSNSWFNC

For “3S- [4-(N-hydroxyamino)-2R-isobutyl-succinyl ]amino-1-isobutoxy-3,4-dihydrocarbostyril [Example 21]”, in assay [1], the pIC50 (in general, −log10 of the IC50, conventionally taken in molar units) was 6.47.

For `COCOCCN1C(=O)[C@@H](NC(=O)[C@@H](CC(=O)NO)CC(C)C)Cc2ccccc21` [Test compound 19, 3S-[4-(N-hydroxyamino)-2R-isobutylsuccinyl]amino-1-methoxymethoxyethyl-3,4-dihydrocarbostyril], the figures for the pIC50 in assay [2] and in assay [1] were 6.85 and 5.01, respectively.

Take `COc1ccc2c(c1)NC(=O)[C@@H](NC(=O)[C@@H](CC(=O)NO)CC(C)C)C2` [Test compound 2, 3S-[4-(N-hydroxyamino)-2R-isobutylsuccinyl]amino-7-methoxy-3,4-dihydrocarbostyril]: the figures for the negative-log IC50 (pIC50) in assay [2], in assay [1] and in assay [3] were 6.35, 6.29 and 6.31, respectively.

As for `CC(C)C[C@@H](C(=O)N[C@H]1Cc2ccccc2NC1=O)[C@H](CS)C(=O)NO` [Test compound 5, 3S-[4-(N-hydroxyamino)-2R-isobutyl-3S-mercaptomethylsuccinyl]amino-3,4-dihydrocarbostyril], the figures for the pIC50 in assay [2], in assay [1] and in assay [3] were 6.44, 6.27 and 6.82, respectively.

In turn, “1-(4-carboxybenzyl)-3(R or S)-[4-(N-hydroxyamino)-2R-isobutylsuccinyl]amino-3,4-dihydrocarbostyril [Example 30]” showed a negative logarithm of the IC50 (pIC50) in assay [1] of 6.62.

Compound “3S-[4-(N-hydroxyamino)-2R-isobutyl-3S-methylsuccinyl]amino-1-(4-methoxybenzyl)-3,4dihydrocarbostyril [Example 31]” had a negative-log IC50 (pIC50) in assay [1] of 5.85.

`CC(=O)SC[C@H](C(=O)NO)[C@@H](CC(C)C)C(=O)N[C@H]1Cc2ccccc2NC1=O` [Test compound 4, 3S-[4-(N-hydroxyamino)-2R-isobutyl-3S-acetylthiomethylsuccinyl]amino-3,4-dihydrocarbostyril]: the negative logarithm of the IC50 (pIC50) is 5.54 in assay [2], 5.72 in assay [1] and 6.07 in assay [3].

Consider `CCCCC[C@H](CC(=O)NO)C(=O)N[C@H]1Cc2cc3c(cc2N(CC)C1=O)OCO3` [Test compound 29, 1-ethyl-3S-[4-(N-hydroxyamino)-2R-pentylsuccinyl]amino-6,7-methylenedioxy-3,4-dihydrocarbostyril], for which the pIC50 in assay [2] is 7.85; in assay [1], 6.70.

As to `CON1C(=O)[C@@H](NC(=O)[C@@H](CC(=O)NO)CC(C)C)Cc2ccccc21` [Test compound 3, 3S-[4-(N-hydroxyamino)-2R-isobutylsuccinyl]amino-1-methoxy-3,4-dihydrocarbostyril], the pIC50 in assay [2] is 6.16; in assay [1] it was 6.28; in assay [3], 5.89. The “Number of lung metastastic nodules mean ± S.E.” value in assay [4] (25 mg/kg/day oral) was 19.0 ± 3.7; in assay [4] (50 mg/kg/day oral) it was 18.7 ± 6.0; in assay [4] (100 mg/kg/day oral), 13.0 ± 5.2; in assay [4] (200 mg/kg/day oral), 9.2 ± 2.8. Besides, the “Ratio to control group” value in assay [4] (25 mg/kg/day oral) was 90%; in assay [4] (50 mg/kg/day oral), 88%; in assay [4] (100 mg/kg/day oral), 61%; in assay [4] (200 mg/kg/day oral) it was 43%.

With `CC(C)C[C@@H](C(=O)N[C@H]1Cc2ccccc2NC1=O)C(CN1C(=O)c2ccccc2C1=O)C(=O)NO` (single isomer, unassigned) [Test compound 7, 3S-[4-(N-hydroxyamino)-2R-isobutyl-3(R or S)-phthalimidomethylsuccinyl]amino-3,4-dihydrocarbostyril], the values for the pIC50 in assay [1] and in assay [3] were 7.74 and 7.64, respectively.

In the case of `CC(C)C[C@@H](C(=O)N[C@H]1Cc2ccccc2NC1=O)[C@H](CSc1cccs1)C(=O)NO` [Test compound 6, 3S-[4-(N-hydroxyamino)-2R-isobutyl-3S-(2-thienylthiomethyl)succinyl]amino-3,4-dihydrocarbostyril], the negative-log IC50 (pIC50) is 8.62 in assay [2], 7.24 in assay [1] and 7.57 in assay [3].

Consider `CC(C)C[C@H](CC(=O)NO)C(=O)N[C@H]1Cc2cc3c(cc2N(C)C1=O)OCO3` [Test compound 27, 3S-[4-(N-hydroxyamino)-2R-isobutylsuccinyl]amino-1-methyl-6,7-methylenedioxy-3,4-dihydrocarbostyril], for which the pIC50 in assay [2] is 6.96; in assay [1] it was 5.66.

In assay [1], “3S- [4-(N-hydroxyamino)-2R-isobutyl-3S-methylsuccinyl]amino-3,4-dihydrocarbostyril [Example 17]” showed a negative-log IC50 (pIC50) of 6.47.

In the case of `CC(C)C[C@H](CC(=O)NO)C(=O)N[C@H]1Cc2ccccc2NC1=O` [Test compound 1, 3S-[4-(N-hydroxyamino)-2R-isobutylsuccinyl]amino-3,4-dihydrocarbostyril], the pIC50 is 6.68 in assay [2], 5.77 in assay [1] and 6.24 in assay [3].

For the origin of these results see patent publication US5594006A, “Carbostyril derivatives as matrix metalloproteinases inhibitors” (Otsuka Pharmaceutical Co., Ltd., priority 1993, dated 1997).
